Assay results published in US20250235437A1, “PROTEOLYSIS TARGETING CHIMERA (PROTAC) MOLECULE FOR DEGRADATION OF ENL AND CANCER THERAPY” (Baylor College of Medicine, priority 2022, published 2025).

Columns and labels:
Molm-13 cells [1] = settings: Molm13 cells, footnote b: reported in Li, et al. J Hematol Oncol, 2022; read-out: Anti-proliferative activity EC50, Molm13; cited from earlier work
Molm-13 cells [2] = test: Apoptosis of Molm-13 cells; format: cell-based
Experimental: Treatment of Molm-13 cells with compound 1 for 7 days at 1 and 3 μM caused significant apoptosis of 22.7% and 67.6%, respectively (FIG. 6C).

RPMI-8226 cells = test: Gene profiling and GSEA in RPMI-8226 cells; format: cell-based; settings: 500 nM for 4 days
[3] = test system: AF9, AFF4, cyclin-T1 and H3K79me2; test: ChIP-qPCR, AF9, AFF4, cyclin-T1 and H3K79me2 at Myc and HoxA9 gene promoters; format: cell-based; settings: 500 nM
Description: (§1) Chromatin immunoprecipitation (ChIP) followed by qPCR was used to further probe the activity of compound 1 in the gene promoters of Myc and HoxA9, two characteristic MLL1 target genes.

ENL [4] = biological target: T1, ENL (Homo sapiens, UniProt Q03111); test: ENL degradation in Molm-13 cells (Western blot); format: cell-based; settings: Molm-13 cells (MLL1-AF9), 24 h
T1 construct: tested whether the compounds degrade ENL and AF9 in MV4;11 leukemia cells; endogenous in cells; host or cells: MV4;11; Molm-13
T1 sequence (Q03111 1-559): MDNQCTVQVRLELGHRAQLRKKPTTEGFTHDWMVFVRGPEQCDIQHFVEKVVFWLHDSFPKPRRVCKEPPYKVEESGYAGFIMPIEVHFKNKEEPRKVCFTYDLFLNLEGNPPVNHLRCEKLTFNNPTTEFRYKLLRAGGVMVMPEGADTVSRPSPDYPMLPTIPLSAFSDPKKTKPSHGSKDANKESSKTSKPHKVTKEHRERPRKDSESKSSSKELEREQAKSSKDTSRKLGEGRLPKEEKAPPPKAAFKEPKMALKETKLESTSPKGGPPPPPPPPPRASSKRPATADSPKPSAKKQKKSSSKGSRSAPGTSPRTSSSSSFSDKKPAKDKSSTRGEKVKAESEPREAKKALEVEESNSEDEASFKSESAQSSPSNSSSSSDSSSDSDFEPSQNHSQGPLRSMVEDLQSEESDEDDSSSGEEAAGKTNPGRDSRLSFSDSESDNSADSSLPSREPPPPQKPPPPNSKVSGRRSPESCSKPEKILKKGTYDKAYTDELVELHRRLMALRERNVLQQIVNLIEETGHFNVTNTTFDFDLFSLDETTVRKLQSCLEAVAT
Experimental: (§2) Next, Applicant tested whether the compounds degrade ENL and AF9 in MV4;11 leukemia cells with the .MLL1-AF4 oncogene. Upon compound treatment for 24 h, the cells were washed, lysed, and the lysates subjected to SDS-PAGE (sodium dodecyl sulphate-polyacrylamide gel electrophoresis) followed by detection with Western blot.
In addition, compound 1 efficiently degraded ENL in another MLL1-r leukemia Molm-13 cells (with MLL1-AF9) with DC50 of 47 nM and Dmax of ˜88% (FIG. 3E). Moreover, significant ENL degradation can be detected in 2 h and depletion occurred within 24 h (FIG. 3F).

Molm-13 leukemia = test: Subcutaneous Molm-13 leukemia xenograft in NOD-SCID mice; format: in vivo
Experimental: In vivo antitumor activity of compound 1 was evaluated in a commonly used mouse model of Molm-13 leukemia. First, in vivo toxicity was assessed in C57BL/6 mice. […] Next, 10^6 Molm-13 cells were injected subcutaneously into NOD-SCID mice, which developed palpable tumors in ˜1 week and grew rapidly.

HoxA11 and HoxA13 = test: mENL-driven HoxA11 and HoxA13 expression in HEK293T cells; format: cell-based; parameters: dose or concentration left out as unconfirmed; settings: 24 h incubation
Description: Next, Applicant investigated how mENL degradation affect expression of HoxA11 and HoxA13 in this cell model.

ENL [5] = biological target: T1, ENL; test: ENL degradation in MV4;11 cells (Western blot); format: cell-based
Experimental: as §2

MV4;11 cells = settings: footnote b: reported in Li, et al. J Hematol Oncol, 2022, read-out: Anti-proliferative activity EC50, MV4; cited from earlier work
Myc = Myc expression in RPMI-8226 cells; format: cell-based; settings: 4 days
[6] = biological target: T2, ENL YEATS-H3K27ac interaction (Homo sapiens, UniProt Q03111); test: ALPHA assay, inhibition of ENL YEATS-H3K27ac interaction; settings: read-out: IC50, inhibition of ENL YEATS-H3K27ac interaction
T2 sequence (Q03111 1-138 limits assumed): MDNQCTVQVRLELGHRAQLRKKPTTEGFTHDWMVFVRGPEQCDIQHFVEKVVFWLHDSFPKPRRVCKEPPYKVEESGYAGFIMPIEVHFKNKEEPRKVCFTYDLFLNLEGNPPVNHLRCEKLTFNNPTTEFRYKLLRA

ENL [7] = biological target: T1, ENL; test: ChIP-qPCR, ENL at Myc and HoxA9 gene promoters; format: cell-based; settings: 500 nM
Description: as §1

Molm-13 cells [8] = test: Differentiation of Molm-13 cells (CD14, CD11b); format: cell-based; settings: 3 μM for 5 days
[9] = In vivo toxicity in C57BL/6 mice; settings: 30 mg/kg/day for 13 days
Experimental: In vivo antitumor activity of compound 1 was evaluated in a commonly used mouse model of Molm-13 leukemia. First, in vivo toxicity was assessed in C57BL/6 mice.

[10] = test system: AF9, AFF4, cyclin-T1, DOT1L; test: Levels of other SEC-related proteins in MV4;11 cells, 4 days (Western blot); format: cell-based; settings: nucleus
Description: Applicant further investigated how compound 1 affects ENL, AF9 and other proteins of SEC in the cytoplasmic and nuclear compartments, the latter of which are more relevant to the functions of these transcription cofactors. […] Upon treatment of MV4;11 cells with these compounds for 4 days, cytoplasmic and nuclear proteins were separated and subjected to SDS-PAGE/Western blot.

ENL [11] = biological target: T1, ENL; test: Nuclear and cytoplasmic ENL levels in MV4;11 cells, 4 days (Western blot); format: cell-based
Description: Upon treatment of MV4;11 cells with these compounds for 4 days, cytoplasmic and nuclear proteins were separated and subjected to SDS-PAGE/Western blot.

For `C[C@H]1CCCN1Cc1nc2cc(NC(=O)c3ccc4c(cnn4CCCCCCCCNc4cccc5c4C(=O)N(C4CCC(=O)NC4=O)C5=O)c3)ccc2[nH]1` (stereo partly shown) [Compound 1], the EC50 (Molm-13 cells [1]) is given as 0.32 µM, the apoptosis (Molm-13 cells [2]; 0.5 μM or shorter incubation (e.g. 4 days)) is given as under 5% and the apoptosis (Molm-13 cells [2]; 7 days, 1 μM) is given as 22.7%. For the same compound, the apoptosis (Molm-13 cells [2]; 7 days, 3 μM) was 67.6%, the “expression of MYC target gene set (GSEA)” value (RPMI-8226 cells) was “significantly down-regulated” and the “AF9, AFF4, cyclin-T1 and H3K79me2 at Myc and HoxA9 gene loci” value [3] was “did not significantly lower down”. For the same compound, the DC50 (ENL [4]) was 0.047 µM, the “Dmax, ENL” value (ENL [4]) was about 88% and the body weight (Molm-13 leukemia; 30 mg/kg/day for Day 3-15) was “did not cause significant weight losses”. The tumor growth (Molm-13 leukemia; 30 mg/kg/day for Day 3-15) was “significantly inhibited tumor growth”, the animal survival (Molm-13 leukemia; 30 mg/kg/day for Day 3-15, p<0.01) was “prolonged animal survivals” and the “overexpression of HoxA11 and HoxA13” value (HoxA11 and HoxA13) was “significantly inhibited overexpression of HoxA11 and HoxA13”. The “Dmax (maximal degradation), ENL” value (ENL [5]; 24 h treatment) was about 95%, the “concentration at which ENL is almost depleted” value (ENL [5]; 24 h treatment) was about 500 nM and the DC50 (ENL [5]; 24 h treatment, read-out: DC50 (concentration at which a protein is reduced by 50%), ENL) was 0.037 µM. The “concentration of maximal ENL-degrading activity” value (ENL [5]; FIG. 3D) was about 500 nM, the “concentrations at which ENL level started to recover (hook effect)” value (ENL [5]; FIG. 3D) was 1 to 10 µM and the EC50 (MV4;11 cells) was 0.57 µM. For the same compound, the “expression of MYC” value (Myc) was “dose-dependently decreased expression of MYC”, the IC50 [6] was 0.17 µM and the “ENL levels at Myc and HoxA9 gene promoters” value (ENL [7]) was “significantly reduced”. For the same compound, the “cell differentiation (CD14, CD11b)” value (Molm-13 cells [8]) was “induced cell differentiation”, the body weight [9] was “did not cause significant weight losses” and the “hematopoiesis and overt toxicities” value [9] was “did not inhibit normal hematopoiesis or cause other overt toxicities”. The “blood cell counts vs control” value ([9]; blood test on day-14) was “no significant differences in blood cell counts”, the “levels of AF9, AFF4, cyclin-T1 and DOT1L” value [10] was “not significantly decreased” and the “ENL level in the cytoplasmic extract” value (ENL [11]) was “significantly reduced”. The “ENL level in the nucleus” value (ENL [11]) was “significantly reduced dose-dependently and almost depleted with 500 nM”.
